Assays:
[1] = system: VEGF-induced HUVEC cells; experiment: CellTiter-Glo assay in VEGF-induced HUVEC cells; type: cell-based; conditions: Homo sapiens; Table 2; VEGF-induced (20 ng/ml) HUVEC cells, 72 hours, cell viability (ATP luminescence); read-out: IC50 HCT 116
Protocol: CellTiter-Glo™ Assay in VEGF-Induced HUVEC Cells:
HUVEC-c (Human Umbilical Vein Endothelial Cells, from Promocell Cat-No. C-12200) cells were trypsinized, spinned down and plated in 384-well plates at 1500 cells per well in 60 μl endothelial basal medium (EBM-2 from Promocell, Cat-No. C-22211) with 0.5% Fetal Calf Serum (FCS, Sigma Cat-No. F4135 (FBS)). Cells were incubated overnight at 37° C., and the next day, test compounds (stock solution 140 μmol/l in medium with 4.2% dimethylsulfoxide (DMSO)) were added in 5 μl medium over a final concentration range of 10 μmol/l to 0.5 nmol/l and 0.3% DMSO. Compounds were tested in triplicates. After 2 hrs 5 μl VEGF (VEGF 165, R&D Systems, Cat-No. 293-VE-010, stock solution 280 ng/ml in medium) was added to a final concentration of 20 ng/ml. Cells were incubated for 72 hours at 37° C. in medium. Cell number was quantitated using CellTiter-Glo™ Luminescent Cell Viability Assay (from Promega) according to the instructions of the supplier. This assay measures the number of viable cells per well by measurement of luminescent signal based on amount of cellular ATP. IC50 are determined using a non-linear curve fit (XLfit software (ID Business Solution Ltd., Guilford, Surrey, UK)) (see also CellTiter-Glo™ assay in HCT 116 cells above).

[2] = system: HCT 116 cells; experiment: CellTiter-Glo assay in HCT 116 cells; type: cell-based; conditions: 120 h; HCT 116 human colon carcinoma cells, 5 days incubation, cell viability (ATP luminescence)
From the text: CellTiter-Glo™ Assay in HCT 116 Cells:
The CellTiter-Glo™ Luminescent Cell Viability Assay (Promega) is a homogeneous method of determining the number of viable cells in culture based on quantitation of the ATP present, which signals the presence of metabolically active cells.
HCT 116 cells (human colon carcinoma, ATCC-No. CCl-247) were cultivated in RPMI 1640 medium with GlutaMAX™ I (Invitrogen, Cat-No. 61870-010), 5% Fetal Calf Serum (FCS, Sigma Cat-No. F4135 (FBS)); 100 Units/ml penicillin/100 μg/ml streptomycin (=Pen/Strep from Invitrogen Cat. No. 15140). For the assay the cells were seeded in 384 well plates, 1000 cells per well, in the same medium. The next day the test compounds were added in various concentrations ranging from 30 μM to 0.0015 μM (10 concentrations, 1:3 diluted). After 5 days the CellTiter-Glo™ assay was done according to the instructions of the manufacturer (CellTiter-Glo™ Luminescent Cell Viability Assay, from Promega). In brief: the cell-plate was equilibrated to room temperature for approximately 30 minutes and than the CellTiter-Glo™ reagent was added. The contents were carefully mixed for 15 minutes to induce cell lysis. After 45 minutes the luminescent signal was measured in Victor 2, (scanning multiwell spectrophotometer, Wallac).
• Medium: RPMI 1640 with GlutaMAX™ I (Invitrogen, Cat-Nr. 61870), 5% FCS (Sigma Cat.-No. F4135), Pen/Strep (Invitrogen, Cat No. 15140). • HCT116 (ATCC-No. CCl-247): 1000 cells in 60 μl per well of 384 well plate (Greiner 781098, μClear-plate white) • After seeding incubate plates 24 h at 37° C., 5% CO2 2nd. Day: Induction (Treatment with Compounds, 10 Concentrations):
In order to achieve a final concentration of 30 μM as highest concentration 3.5 μl of 10 mM compound stock solution were added directly to 163 μl media. Then step e) of the dilution procedure described below, was followed.

IC50 [2]: 300 to 10000 nM
Compound: O=C(Nc1ccc(Cl)cc1)Nc1ccc(Oc2ccnc(NCCCO)n2)cc1 [Example 6, 1-(4-Chloro-phenyl)-3-{4-[2-(3-hydroxy-propylamino)-pyrimidin-4-yloxy]-phenyl}-urea]
IC50 [1]: 257 nM

Reference: patent publication US8080552B2, “Pyrimidyl derivatives as protein kinase inhibitors” (Hoffmann-LA Roche Inc., priority 2006, dated 2011)
